Like-named read-outs stand apart in the source and are kept apart here.
Target: T1, glucocorticoid receptor (GR) (Homo sapiens, UniProt P04150)
T1 sequence (P04150 1-777): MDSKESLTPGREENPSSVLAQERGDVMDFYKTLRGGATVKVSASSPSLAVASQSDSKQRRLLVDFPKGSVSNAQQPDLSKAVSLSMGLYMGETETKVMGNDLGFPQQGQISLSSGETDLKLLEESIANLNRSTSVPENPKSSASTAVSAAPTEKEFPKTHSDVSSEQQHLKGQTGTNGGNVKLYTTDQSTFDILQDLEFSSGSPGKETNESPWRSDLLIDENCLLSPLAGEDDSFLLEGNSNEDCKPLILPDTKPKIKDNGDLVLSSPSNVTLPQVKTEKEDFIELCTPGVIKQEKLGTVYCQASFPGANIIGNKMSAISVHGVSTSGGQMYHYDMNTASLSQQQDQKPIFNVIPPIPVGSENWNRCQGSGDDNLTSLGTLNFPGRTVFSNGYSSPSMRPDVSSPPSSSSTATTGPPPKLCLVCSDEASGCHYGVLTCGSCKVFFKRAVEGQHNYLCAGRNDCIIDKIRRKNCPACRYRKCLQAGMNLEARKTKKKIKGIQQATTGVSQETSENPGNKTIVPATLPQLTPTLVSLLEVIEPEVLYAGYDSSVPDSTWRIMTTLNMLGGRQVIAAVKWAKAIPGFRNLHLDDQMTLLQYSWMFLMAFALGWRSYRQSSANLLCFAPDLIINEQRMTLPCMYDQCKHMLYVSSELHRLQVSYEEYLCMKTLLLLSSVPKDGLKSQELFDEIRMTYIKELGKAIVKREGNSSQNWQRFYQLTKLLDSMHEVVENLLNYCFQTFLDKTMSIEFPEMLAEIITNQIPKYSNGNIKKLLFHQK
Test: GR-EFC nuclear translocation assay
Assay type: cell-based
Details: for qHTS Hill Slope: Hill slope of the qHTS curve fit; for log qEC50: log10 of qEC50 in M, printed as negative values; for qHTS Max Activity: maximal activity of the qHTS curve, inactive threshold […] (3σ)

[1] = read-out: qEC50, qHTS curve fit, class 4 values are fit defaults
[2] = class 4 values are fit defaults

| EC50 [1] [µM] | EC50 (read-out: qEC50) [µM] | SMILES | qHTS Curve Class | other results |
| --- | --- | --- | --- | --- |
| > 9 | – | C[C@]12CC[C@H]3c4ccc(OC[C@H]5CO5)cc4CC[C@H]3[C@H]1CC[C@@H]2O [NCGC00017797-01] | – | – |
| – | > 9 | CC1(C)[C@@H](O)CC[C@@]2(C)[C@H]1CC[C@]1(C)[C@H]2C(=O)C=C2[C@@H]3C[C@@](C)(C(=O)O)CC[C@]3(C)CC[C@@]21C [NCGC00017244-01] | 4 (inactive, where activity was below 28.6% (3σ for the present assay)) | – |
| > 9 | – | COc1cc2c(cc1O)CCC1C2CC[C@@]2(C)C1CC[C@@H]2O (stereo partly drawn) [NCGC00025300-01] | – | – |
| – | > 9 | CC1(C)CC[C@]2(C(=O)O)CC[C@]3(C)C(=CC[C@@H]4[C@@]5(C)CC[C@H](O)C(C)(C)[C@@H]5CC[C@@]43C)[C@@H]2C1 [NCGC00017222-01] | 4 (inactive, where activity was below 28.6% (3σ for the present assay)) | – |
| – | > 9 | C#C[C@@]1(O)CC[C@H]2[C@H]3CCC4=Cc5oncc5C[C@]4(C)[C@@H]3CC[C@@]21C [NCGC00015375-01] | 4 (inactive, where activity was below 28.6% (3σ for the present assay)) | – |
| 0.434 | – | C[C@@]12CCC(=O)C=C1CC[C@H]1[C@H]3CC[C@](O)(C(=O)CO)[C@]3(C)CC[C@@H]12 [NCGC00015886-01] | – | qHTS Hill Slope: 0.59; log qEC50 [2]: −6.363; qHTS Max Activity: 41.2 |
| – | > 9 | C#C[C@]1(O)CC[C@@H]2[C@H]3CCC4=Cc5oncc5C[C@]4(C)[C@@H]3CC[C@@]21C [NCGC00016726-01] | 4 (inactive, where activity was below 28.6% (3σ for the present assay)) | – |
| > 9 | – | CC(=O)[C@@H]1CC[C@@H]2[C@@H]3CC=C4C[C@H](OS(=O)(=O)O)CC[C@@]4(C)[C@H]3CC[C@]21C [NCGC00016184-01] | – | – |
| > 9 | – | COc1ccc2c(c1)CC[C@H]1[C@H]2CC[C@]2(C)[C@H](NCCCCCCN3C(=O)C=CC3=O)CC[C@@H]12 [NCGC00016078-01] | – | – |
| – | – | C[C@@H]1C[C@@H]2[C@H]3CCC4=CC(=O)C=C[C@]4(C)[C@]3(Cl)[C@@H](O)C[C@@]2(C)[C@@]1(O)C(=O)CO [NCGC00015136-01] | – | qHTS Hill Slope: 0.67; qHTS Max Activity: 105.1 |
| – | > 9 | CC(=O)O[C@H]1CC[C@@]2(C)[C@@H](CC[C@@]3(C)[C@H]2C(=O)C=C2[C@H]4C[C@](C)(C(=O)OCCN5CCCCC5)CC[C@]4(C)CC[C@@]23C)C1(C)C [NCGC00017165-01] | 4 (inactive, where activity was below 28.6% (3σ for the present assay)) | – |
| – | > 9 | C[C@@]12C=CC(=O)C=C1CC[C@@H]1C2=CC[C@]2(C)[C@@H]1CC[C@H]2C(=O)CN1CCN(c2cc(N3CCCC3)nc(N3CCCC3)n2)CC1 [NCGC00016076-01] | 4 (inactive, where activity was below 28.6% (3σ for the present assay)) | – |
| – | – | CC(=O)C1(O)CCC2C3CCC4=CC(=O)CCC4(C)C3CCC21C (stereo not drawn) [17α-hydroxyprogesterone, reference compound] | – | EC50: 2.87 µM |
| > 9 | – | C[C@@]12CC[C@@H]3c4ccc(O)cc4C[C@H](CCCCCCCCC[S+]([O-])CCCC(F)(F)C(F)(F)F)[C@H]3[C@@H]1CC[C@@H]2O (stereo partly drawn) [NCGC00024964-01] | – | – |
| – | – | CC(=O)[C@@]1(O)CC[C@@H]2[C@@H]3CCC4=CC(=O)CC[C@@]4(C)[C@H]3CC[C@]21C [NCGC00015510-01] | – | qHTS Hill Slope: 0.35; qHTS Max Activity: 100.0 |
| – | > 9 | C#C[C@@]1(O)CC[C@@H]2[C@@H]3CCC4=CC(=O)CC[C@@H]4[C@H]3CC[C@]21CC [NCGC00016540-01] | 4 (inactive, where activity was below 28.6% (3σ for the present assay)) | – |
| – | > 9 | CC(=O)[C@H]1CC[C@H]2[C@@H]3C=CC4=CC(=O)CC[C@@]4(C)[C@@H]3CC[C@]12C [NCGC00016413-01] | 4 (inactive, where activity was below 28.6% (3σ for the present assay)) | – |
| – | – | C#C[C@@]1(O)CC[C@@H]2[C@@H]3CCC4=CC(=O)CC[C@@]4(C)[C@H]3CC[C@]21C [NCGC00016444-01] | – | qHTS Hill Slope: 0.97; qHTS Max Activity: 15.2 |
| > 9 | – | CC[C@H](CC[C@H](C)[C@@H]1CC[C@@H]2[C@H]3CC=C4C[C@@H](O)CC[C@]4(C)[C@H]3CC[C@]21C)C(C)C [NCGC00016331-01] | – | – |
| 0.0827 | – | C[C@]12C=CC(=O)C=C1CC[C@@H]1[C@H]3C[C@@H](O)[C@](O)(C(=O)CO)[C@@]3(C)C[C@H](O)[C@]12F [NCGC00016376-01] | – | qHTS Hill Slope: 1.15; log qEC50 [2]: −7.082; qHTS Max Activity: 67.5 |
| – | > 9 | CC[C@@H]1Cc2cc(O)ccc2C2=C1c1ccc(O)cc1C[C@H]2CC [NCGC00015377-01] | 4 (inactive, where activity was below 28.6% (3σ for the present assay)) | – |
| – | > 9 | C[C@H]1[C@H](C)CC[C@@]2(C(=O)O)CC[C@]3(C)C(=CC[C@@H]4[C@@]5(C)CC[C@H](O)C(C)(C)[C@@H]5CC[C@@]43C)[C@@H]12 [NCGC00017223-01] | 4 (inactive, where activity was below 28.6% (3σ for the present assay)) | – |
| 0.0165 | – | C[C@@]12C[C@@H](O)[C@H]3[C@@H](CCC4=CC(=O)CC[C@]43C)[C@H]1CC[C@H]2C(=O)CO [NCGC00016214-01] | – | qHTS Hill Slope: 1.35; log qEC50 [2]: −7.782; qHTS Max Activity: 37.8 |

| SMILES | EC50 [1] [µM] | EC50 (read-out: qEC50) [µM] | qHTS Curve Class | other results |
| --- | --- | --- | --- | --- |
| C[C@@]12CC[C@H](O)C[C@@H]1CC[C@H]1[C@H]2CC[C@@]2(C)[C@@H](C3=CC(=O)OC3)CC[C@]12O [NCGC00016406-01] | > 9 | – | – | – |
| C[C@]12C[C@H]3S[C@H]3C[C@@H]1CC[C@@H]1[C@@H]2CC[C@]2(C)[C@@H](O)CC[C@@H]12 [NCGC00016609-01] | – | > 9 | 4 (inactive, where activity was below 28.6% (3σ for the present assay)) | – |
| CC(=O)[C@@H]1CC[C@H]2[C@H]3CC[C@H]4C[C@@H](O)CC[C@]4(C)[C@@H]3CC[C@]12C [NCGC00015853-01] | > 9 | – | – | – |
| C[C@H]1CC[C@@]2(NC1)O[C@@H]1C[C@H]3[C@@H]4CC=C5C[C@@H](O)CC[C@]5(C)[C@@H]4CC[C@]3(C)[C@@H]1[C@@H]2C [NCGC00016381-01] | > 9 | – | – | – |
| C[C@@H]1O[C@H](O[C@@H]2CC[C@@]3(C=O)[C@H]4CC[C@@]5(C)[C@@H](C6=CC(=O)OC6)CC[C@@]5(O)[C@@H]4CC[C@]3(O)C2)C[C@H](O)[C@@H]1O [NCGC00016524-01] | > 9 | – | – | – |
| CC(=O)O[C@@H]1[C@H]([N+]2(C)CCCCC2)C[C@@H]2[C@@H]3CC[C@@H]4C[C@@H](OC(C)=O)[C@H]([N+]5(C)CCCCC5)C[C@@]4(C)[C@H]3CC[C@]21C [NCGC00015804-01] | > 9 | – | – | – |
| CC(C)(O)/C=C\C(=O)[C@](C)(O)[C@H]1[C@H](O)C[C@]2(C)[C@@H]3CC=C4[C@@H](C=C(O)C(=O)C4(C)C)[C@]3(C)C(=O)C[C@@]12C [NCGC00014911-01] | – | > 9 | 4 (inactive, where activity was below 28.6% (3σ for the present assay)) | – |
| C[C@@H]1O[C@@H](O[C@@H]2C=C3CC[C@@H]4[C@H](CC[C@]5(C)[C@@H](c6ccc(=O)oc6)CC[C@]45O)[C@@]3(C)CC2)[C@H](O)[C@H](O)[C@H]1O [NCGC00016447-01] | – | > 9 | 4 (inactive, where activity was below 28.6% (3σ for the present assay)) | – |
| C[C@]12CC[C@H](O)CC1=CC[C@@H]1[C@H]2CC[C@]2(C)C(=O)CC[C@H]12 [NCGC00015341-01] | > 9 | – | – | – |
